System: primary rat osteoblasts
Assay: Proliferation of primary rat osteoblasts (cell counts and [3H]-thymidine incorporation)
Assay type: cell-based
Details: for Mitogenic / proliferative effect on primary osteoblasts (in words): significantly different from control by ANOVA, post hoc Dunnett's test
Experimental: Osteoblasts were isolated by collagenase digestion from 20-day fetal rat ? viously described by Lowe, et al. (1991). Calvariae were dissected aseptically, and the frontal and parietal bones were stripped of their periosteum. Only the central portions of the bones, free from suture tissue, were collected. The calvariae were treated twice with phosphate buffered saline (PBS) containing 3 mM EDTA (pH 7.4) for 15 minutes at 37° C. in a shaking water bath. After washing once in PBS, the calvariae were treated twice with 3 ml of 1 mg/ml collagenase for 7 minutes at 37° C. After discarding the supernatants from digestions I and II, the calvariae were treated further two times with 3 ml of 2 mg/ml collagenase (30 mins, 37° C.). The supernatants of digestions III and IV were pooled, centrifuged, and the cells washed in Dulbecco's modified Eagle's medium (DME) with 10% fetal calf serum (FCS), suspended in DME/10% FCS, and placed in […] flasks. The cells were incubated under 5% CO2 and 95% air at 37° C. Confluence was reached by 5-6 days, at which time the cells were subcultured. After trypsinization using trypsin-EDTA (0.05%/0.53 mM), the cells were rinsed in minimum essential medium (MEM) with 5% FCS and resuspended in a fresh medium, then seeded at 5×10^4 cells/ml in 24-well plates (0.5 ml cell suspension per well, i.e., 1.4×10^4 cells/cm^2).
Proliferation studies (cell counts and thymidine incorporation) were performed both in actively growing and non-actively growing cell populations. To produce actively growing cells, sub-confluent populations (24 h after subculturing) were placed in fresh MEM containing 1% FCS and a lactoferrin fragment sample (see Table 1 below). To produce non-actively growing cells, sub-confluent populations were placed in serum-free medium with 0.1% bovine serum albumin plus a lactoferrin fragment sample. Cell numbers were analyzed at 6, 24, and 48 hours after the addition of lactoferrin fragment samples. The cell numbers were determined after detaching cells from the wells by exposure to trypsin/EDTA (0.05%/0.53 mM) for approximately 5 minutes at 37° C. Counting was performed in a haemocytometer chamber. [3H]-thymidine incorporation into actively growing and non-actively growing cells was assessed by pulsing the cells with [3H]-thymidine (1 μCi/well) two hours before the end of the incubation. The experiment was terminated at 6, 24, or 48 hours by washing the cells in MEM containing cold thymidine followed by the addition of 10% trichloroacetic acid. The precipitate was washed twice with ethanol:ether (3:1), and the wells desiccated at room temperature. The ? redissolved in 2 M KOH at 55° C. for 30 min, neutralized with 1 M HCl, and an aliquot counted for radioactivity. For both cell counts and thymidine incorporation, each experiment at each time point was performed at least 4 different times using experimental groups consisting of at least 6 wells.
The osteogenic response seen above was compared with that of insulin-like growth factor 1 (IGF-1), a well-recognized osteoblast mitogen. The magnitudes of response of the lactoferrin fragments were similar to IGF-1 in the same osteoblast cell culture system.

[1] = primary rat osteoblasts, Table 1

Sequence | Concentration at which osteoblast proliferation is significantly different from control (figure legends, post hoc Dunnett's test P<0.05 or P<0.01) | Mitogenic / proliferative effect on primary osteoblasts (in words) (figure legends) | Dose (ug/mL): minimum dose range that stimulates osteoblast proliferation [1] | Dose (M): minimum dose range that stimulates osteoblast proliferation (primary rat osteoblasts, Table 1, printed as orders of magnitude, e.g. 10^−7/8)
FKCRRWQWRMKKLGAPSITCVRRAFA [SEQ ID NO. 14] | 0.01 µg/mL | mitogenic to primary osteoblasts | 0.01 to 1.0 µg/mL | –
FKCRRWQWRMKKLGA [SEQ ID NO. 17] | – | mitogenic to primary osteoblasts | 0.1 to 10 µg/mL | –
WKLLSKAQEKFGKNKS (listed as Bos taurus) [SEQ ID NO. 33] | – | mitogenic to primary osteoblasts | 100 µg/mL | 10^−5 M
RRWQWRMKKLG [SEQ ID NO. 16] | – | – | 0.1 to 10 µg/mL | –

Reference: US20090270309A1, “USE OF LACTOFERRIN FRAGMENTS AND HYDROLYSATES” (priority 2005, published 2009)
